In US20250163052A1, “cGAS INHIBITORS AND USES THEREOF” (Cornell University, priority 2022, published 2025):

Experiments:
[1] = Metabolic stability in human liver microsomes
[2] = system: MEF2C target genes; assay: Single-nuclei RNA-seq of excitatory and inhibitory neurons, overlap with MEF2C target genes; format: in vivo, mouse; settings: P301S mice, 150 mg/kg diet for three months; snRNA-seq
Method: Hippocampi isolation from frozen mouse hippocampi was adapted from a previous study with modifications (Grubman et al., 2019; Habib et al., 2017). All procedures were done on ice or at 4° C. In brief, post-mortem brain tissue was placed in 1500 μl of Sigma nuclei PURE lysis buffer (Sigma, NUC201-1KT) and homogenized with a Dounce tissue grinder (Sigma, D8938-1SET) with 20 strokes with pestle A and 15 strokes with pestle B. The homogenized tissue was filtered through a 35-μm cell strainer, then centrifuged at 600 g for 5 min at 4° C. and washed three times with 1 ml of PBS containing 1% BSA, 20 mM DTT and 0.2 U μl^−1 recombinant RNase inhibitor. […] The FACS-sorted suspension of DAPI-stained nuclei were counted and diluted to a concentration of 1000 nuclei per microliter in PBS containing 0.04% BSA. […]
Gene counts were obtained by aligning reads to the mm10 genome with Cell Ranger software (v.3.1.0) (10× Genomics). To account for unspliced nuclear transcripts, reads mapping to pre-mRNA were counted. […] We further removed genes expressed in no more than 2 cells, cells with unique gene counts over 4,000 or less than 200, and cells with high fraction of mitochondrial reads (>5%). […] To identify gene ontology and pathways enriched in the differentially expressed genes (DEGs), DEGS were analysed using (MSigDB) gene annotation database (Liberzon et al., 2011; Subramanian et al., 2005). […]

[3] = target: h-cGAS (Homo sapiens, UniProt Q8N884); assay: Cell-free human cGAS enzyme inhibition assay (ATP depletion, Kinase-Glo Max); format: biochemical; settings: human cGAS
Sequence of h-cGAS (Q8N884 whole entry): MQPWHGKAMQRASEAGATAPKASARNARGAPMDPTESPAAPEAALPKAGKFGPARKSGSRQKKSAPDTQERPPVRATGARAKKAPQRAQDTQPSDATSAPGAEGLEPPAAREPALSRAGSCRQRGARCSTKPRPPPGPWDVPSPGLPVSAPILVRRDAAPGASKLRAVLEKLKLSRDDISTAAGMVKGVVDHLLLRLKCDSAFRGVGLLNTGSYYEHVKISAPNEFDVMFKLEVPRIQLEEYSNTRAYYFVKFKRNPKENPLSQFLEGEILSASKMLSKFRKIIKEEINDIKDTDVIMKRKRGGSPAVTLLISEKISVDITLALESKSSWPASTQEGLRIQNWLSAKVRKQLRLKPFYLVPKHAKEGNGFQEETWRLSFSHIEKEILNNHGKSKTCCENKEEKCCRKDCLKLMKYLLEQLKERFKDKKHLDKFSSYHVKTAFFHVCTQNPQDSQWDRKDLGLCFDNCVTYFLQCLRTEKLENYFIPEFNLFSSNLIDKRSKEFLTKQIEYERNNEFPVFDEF

[4] = target: m-cGAS (Mus musculus, UniProt Q8C6L5); assay: Cell-free mouse cGAS enzyme inhibition assay (ATP depletion, Kinase-Glo Max); format: biochemical; settings: mouse cGAS
Sequence of m-cGAS (Q8C6L5 whole entry): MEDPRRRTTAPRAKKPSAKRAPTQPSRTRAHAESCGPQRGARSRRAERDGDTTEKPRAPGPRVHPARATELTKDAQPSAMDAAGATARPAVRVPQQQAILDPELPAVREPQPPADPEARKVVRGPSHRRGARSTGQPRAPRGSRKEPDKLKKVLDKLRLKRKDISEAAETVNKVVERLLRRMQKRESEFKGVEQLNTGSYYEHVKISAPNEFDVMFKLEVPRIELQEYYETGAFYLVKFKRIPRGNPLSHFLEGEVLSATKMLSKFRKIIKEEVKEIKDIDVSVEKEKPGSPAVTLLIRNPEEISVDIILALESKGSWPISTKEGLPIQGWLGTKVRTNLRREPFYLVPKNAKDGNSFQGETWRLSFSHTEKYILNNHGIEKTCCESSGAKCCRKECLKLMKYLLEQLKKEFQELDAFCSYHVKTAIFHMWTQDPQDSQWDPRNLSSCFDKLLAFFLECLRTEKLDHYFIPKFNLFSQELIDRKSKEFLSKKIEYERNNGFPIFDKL

[5] = Metabolic stability in mouse liver microsomes

## Cn1c2c(c3ccc(Cl)c(F)c31)CN(C(=O)CO)CC2 [TDI-6570, reference compound]
[1]; human liver microsomes, 60 min, no co-factor (no NADPH)
  Remaining (NCF = 60 min): 120.6%
[1]; human liver microsomes, 60 min with NADPH
  Remaining (T = 60 min): 11.3%
[1]; human liver microsomes, scaled from CLint(mic)
  CLint(liver): 68.2 mL/min/kg
[1]; human, liver microsomes
  CLint(mic): 75.8 µL/min/mg
  T½: 18.3 min
[2]
  Enrichment of MEF2C target genes in DEGs of excitatory and inhibitory neurons: strong enrichment of MEF2C target genes
[3]
  IC50: 138 nM
[4]
  IC50: 12.8 nM
[5]; mouse liver microsomes, 60 min, no co-factor (no NADPH)
  Remaining (NCF = 60 min): 100.0%
[5]; mouse liver microsomes, 60 min with NADPH
  Remaining (T = 60 min): 0.0%
[5]; mouse liver microsomes, scaled from CLint(mic)
  CLint(liver): 997.5 mL/min/kg
[5]; mouse, liver microsomes
  CLint(mic): 251.9 µL/min/mg
  T½: 5.5 min
